In patent publication US20100267561A1, “HERBICIDAL PYRIDAZINONE DERIVATIVES” (priority 2007, published 2010):

How the values were obtained:
Assay type in all cases: in vivo
[1] = test system: barnyardgrass (Echinochloa crus-galli); assay: Test A pre-/postemergence plant response
Outline: (§1)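 Ratings run 0–100 (100 = complete control), assigned visually against untreated controls roughly 10 days after treatment in a greenhouse. Compounds, formulated in non-phytotoxic solvent containing surfactant, were applied as a soil-directed preemergence spray and concurrently postemergence to one- to two-leaf plants 2–10 cm tall.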

[2] = test system: blackgrass (Alopecurus myosuroides); assay: Test A pre-/postemergence plant response
Outline: as §1

[3] = test system: canarygrass (Phalaris minor); assay: Test A pre-/postemergence plant response
Outline: as §1

corn (Zea mays) = assay: Test A pre-/postemergence plant response
Outline: as §1

[4] = test system: giant foxtail (Setaria faberi); assay: Test A pre-/postemergence plant response
Outline: as §1

[5] = test system: large crabgrass (Digitaria sanguinalis); assay: Test A pre-/postemergence plant response
Outline: as §1

[6] = test system: pigweed (Amaranthus retroflexus); assay: Test A pre-/postemergence plant response
Outline: as §1

[7] = test system: wheat (Triticum aestivum); assay: Test A pre-/postemergence plant response
Outline: as §1

[8] = test system: barnyardgrass (Echinochloa crus-galli); assay: Test B flooded paddy test plant response
Outline: (§2)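 Paddy-water application to 2-leaf plants in pots held under 3 cm of flooding; response is a 0–100 visual control rating against controls after 13 to 15 days, and a dash marks a missing result.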

[9] = test system: ducksalad (Heteranthera limosa); assay: Test B flooded paddy test plant response
Outline: as §2

rice (Oryza sativa) = assay: Test B flooded paddy test plant response
Outline: as §2

[10] = test system: umbrella sedge (Cyperus difformis); assay: Test B flooded paddy test plant response
Outline: as §2

[11] = Postemergence, 31 g ai/ha, 0 to 100 scale (0 no effect, 100 complete control)
[12] = Postemergence, 125 g ai/ha, 0 to 100 scale, 0 no effect, 100 complete control
[13] = Preemergence, 31 g ai/ha, 0 to 100 scale, 0 is no effect, 100 is complete control
[14] = Preemergence, 125 g ai/ha, 0 to 100 scale (0 no effect, 100 complete control)
[15] = Flood (flooded paddy test), 250 g ai/ha, scale 0 to 100, 0 no effect, 100 complete control
[16] = Flood, 62 g ai/ha, scale 0 to 100

Row | SMILES | Plant response rating, Barnyardgrass [1, 11] | Plant response rating, Barnyardgrass [1, 12] | Plant response rating, Barnyardgrass [1, 13] | Plant response rating, Barnyardgrass [1, 14] | Plant response rating, Blackgrass [2, 11] | Plant response rating, Blackgrass [2, 12] | Plant response rating, Blackgrass [2, 13] | Plant response rating, Blackgrass [2, 14] | Plant response rating, Canarygrass [3, 11] | Plant response rating, Canarygrass [3, 12] | Plant response rating, Canarygrass [3, 13] | Plant response rating, Canarygrass [3, 14] | Plant response rating, Corn (corn (Zea mays); [11]) | Plant response rating, Corn (corn (Zea mays); [12]) | Plant response rating, Corn (corn (Zea mays); [14]) | Plant response rating, Foxtail, Giant [4, 11] | Plant response rating, Foxtail, Giant [4, 12] | Plant response rating, Foxtail, Giant [4, 13] | Plant response rating, Foxtail, Giant [4, 14] | Plant response rating, Crabgrass, Large [5, 11] | further results
1 | Cc1cn(-c2ccc(Cl)cn2)nc1-c1c(O)cnn(C)c1=O [Compound 84] | 0 | 0 | 0 | 0 | 0 | 0 | 0 | 0 | 0 | 0 | 0 | 0 | 0 | 0 | 0 | 0 | 10 | 0 | 0 | 0 | Plant response rating, Corn (corn (Zea mays); [13]): 0; Plant response rating, Crabgrass, Large [5, 12]: 10; Plant response rating, Crabgrass, Large [5, 13]: 0; Plant response rating, Crabgrass, Large [5, 14]: 0; Plant response rating, Pigweed [6, 11]: 0; Plant response rating, Pigweed [6, 12]: 0; Plant response rating, Pigweed [6, 13]: 0; Plant response rating, Pigweed [6, 14]: 0; Plant response rating, Wheat [7, 11]: 0; Plant response rating, Wheat [7, 12]: 0; Plant response rating, Wheat [7, 13]: 0; Plant response rating, Wheat [7, 14]: 0; Plant response rating, Barnyardgrass [8, 15]: 0; Plant response rating, Barnyardgrass [8, 16]: 0; Plant response rating, Ducksalad [9, 15]: 0; Plant response rating, Ducksalad [9, 16]: 0; Plant response rating, Rice (rice (Oryza sativa); [15]): 0; Plant response rating, Rice (rice (Oryza sativa); [16]): 0; Plant response rating, Sedge, Umbrella [10, 15]: 0; Plant response rating, Sedge, Umbrella [10, 16]: 0
2 | CCc1cc(-c2ccc(C(F)(F)F)cc2)nn1-c1c(OC(=O)c2ccc(Cl)nc2)cnn(C)c1=O [Compound 94] | 100 | 100 | 50 | 100 | 80 | 100 | 60 | 100 | 70 | 100 | 70 | 90 | 100 | 100 | 90 | 100 | 100 | 90 | 100 | 90 | Plant response rating, Crabgrass, Large [5, 12]: 100; Plant response rating, Crabgrass, Large [5, 13]: 70; Plant response rating, Crabgrass, Large [5, 14]: 100; Plant response rating, Pigweed [6, 11]: 0; Plant response rating, Pigweed [6, 12]: 0; Plant response rating, Pigweed [6, 13]: 0; Plant response rating, Pigweed [6, 14]: 0; Plant response rating, Wheat [7, 11]: 50; Plant response rating, Wheat [7, 12]: 80; Plant response rating, Wheat [7, 13]: 50; Plant response rating, Wheat [7, 14]: 90
3 | CCc1cc(-c2ccc(C(F)(F)F)cc2)nn1-c1c(OC(=O)C2CCCCC2)cnn(C)c1=O [Compound 95] | 100 | 100 | 50 | 100 | 70 | 100 | 90 | 100 | 90 | 100 | 70 | 100 | 90 | 100 | 90 | 100 | 100 | 100 | 100 | 90 | Plant response rating, Corn (corn (Zea mays); [13]): 40; Plant response rating, Crabgrass, Large [5, 12]: 100; Plant response rating, Crabgrass, Large [5, 13]: 90; Plant response rating, Crabgrass, Large [5, 14]: 100; Plant response rating, Pigweed [6, 11]: 0; Plant response rating, Pigweed [6, 12]: 0; Plant response rating, Pigweed [6, 13]: 0; Plant response rating, Pigweed [6, 14]: 0; Plant response rating, Wheat [7, 11]: 70; Plant response rating, Wheat [7, 12]: 80; Plant response rating, Wheat [7, 13]: 80; Plant response rating, Wheat [7, 14]: 90
